Key:
EpiVaginal tissues = assay: macrophage infiltration in treated EpiVaginal tissues (barrier function), four hours in the presence of TNF-α; assay type: cell-based; conditions: vs. 28% into the untreated tissue; macrophages cultured with the tissue for four hours in the presence of TNF-α
Source text: FIG. 1 is a graph showing macrophage infiltration in hormone (estrogen) and L759,633-treated EpiVaginal tissues. L759,633 had the most striking effect on macrophage infiltration: only 6% of cells infiltrated into the tissue past 90 μm (vs. 28% into the untreated tissue, p<0.006 ANOVA). […] U=untreated control; E=estradiol; P=progesterone; and IMG=the cannabinoid L759,633.
Many of the above-noted genes are differentially regulated by estradiol in menopausal tissue. […] With respect to the barrier function, only 6% of macrophages which had been cultured with the tissue for four hours in the presence of TNF-α were capable of infiltrating into the tissue past 90 um (vs. 28% into the untreated tissue, p<0.006 ANOVA). […] This would indicate that the increased gene expression of the proteins involved with cross-linking of the keratin fibers, filagrins and desmosomal cadherins are all contributing to the fortification of the vaginal mucosa which would prevent the infiltration of pathogens and prevent the loss of solutes and water from within the tissue.

vaginal tissue construct = assay: microarray analysis of differential gene expression (Affymetrix Human Gene 1.0 ST arrays), tissues treated for seven days via culture medium; assay type: cell-based; conditions: for VEGFA Fold Change: gene vascular endothelial growth factor A
Source text: The data from the Affymetrix Human Gene 1.0 ST arrays were normalized using the Robust Multiarray Average (RMA) algorithm and a Chip Definition File (CDF) that maps the probes on the array to unique Entrez Gene identifiers. The result is a matrix in which each column corresponds to a sample. The expression values are log 2-transformed by default.
By using a fold change >1.5, an analysis of differentially expressed genes was done to identify those genes which were involved in the cornified envelope, keratinocyte differentiation, cell differentiation, epidermis development, epithelial cell differentiation, junctional proteins and signaling, immune response and innate immune response.

## C[C@]12CC[C@@H]3c4ccc(O)cc4CC[C@H]3[C@@H]1CC[C@@H]2O [Estradiol, 17β-estradiol, reference compound]
EpiVaginal tissues
  macrophages infiltrated into the tissue past 90 μm: 16%
Vaginal tissue construct
  SPRR2D Fold Change: 2.793 fold
  WFDC12 Fold Change: 3.103 fold
  VEGFA Fold Change: 1.2 fold
Vaginal tissue construct; gene CD74 molecule
  CD74 Expr Fold Change: −1.89 fold
Vaginal tissue construct; gene CD244 molecule
  CD244 Expr Fold Change: 2.355 fold
Vaginal tissue construct; gene Corneodesmosin
  CDSN Fold Change: 3.011 fold
Vaginal tissue construct; gene C−C motif chemokine ligand 28
  CCL28 Expr Fold Change: −1.948 fold
Vaginal tissue construct; gene FYN binding protein 1
  FYB1 Expr Fold Change: −2.225 fold
Vaginal tissue construct; gene Interferon Epsilon
  IFNE Fold Change: 2.1 fold
Vaginal tissue construct; gene NLR family pyrin domain containing 10
  NLRP10 Fold Change: 4.199 fold
Vaginal tissue construct; gene RNAse family
  RNAse7 Fold Change: 3.387 fold
Vaginal tissue construct; gene TNF receptor superfamily member 10c
  TNFRSF10C Expr Fold Change: −2.162 fold
Vaginal tissue construct; gene Transglutaminase 1
  TGM1 Fold Change: 1.406 fold
Vaginal tissue construct; gene Transglutaminase 3
  TGM3 Fold Change: 15.681 fold
Vaginal tissue construct; gene Transglutaminase 5
  TGM5 Fold Change: 1.135 fold
Vaginal tissue construct; gene V-set domain containing T cell activation inhibitor 1
  VTCN1 Expr Fold Change: −2.364 fold
Vaginal tissue construct; gene WAP four-disulfide core domain 5
  WFDC5 Fold Change: 1.2 fold
Vaginal tissue construct; gene arachidonate 12-lipoxygenase, 12R type
  ALOX12B Fold Change: 2.207 fold
Vaginal tissue construct; gene arachidonate lipoxygenase 3
  ALOXE3 Fold Change: 1.371 fold
Vaginal tissue construct; gene colony stimulating factor 2 receptor beta common subunit
  CSF2RB Expr Fold Change: 1.517 fold
Vaginal tissue construct; gene cornifelin
  CNFN Fold Change: 1.3 fold
Vaginal tissue construct; gene dermokine
  DMKN Fold Change: 2.428 fold
Vaginal tissue construct; gene descmocollin 3
  DCS3 Fold Change: 1.2 fold
Vaginal tissue construct; gene desmocollin 1
  DSC1 Fold Change: 1.673 fold
Vaginal tissue construct; gene desmocollin 2
  DSC2 Fold Change: 1.3 fold
Vaginal tissue construct; gene desmoglein 1
  DSG1 Fold Change: 4.964 fold
Vaginal tissue construct; gene filaggrin
  FLG Fold Change: 3.212 fold
Vaginal tissue construct; gene filaggrin family member 2
  FLG2 Fold Change: 2.766 fold
Vaginal tissue construct; gene human keratinocyte proline rich protein
  KPRP Fold Change: 5.557 fold
Vaginal tissue construct; gene interleukin 23 subunit alpha
  IL23A Expr Fold Change: 2.912 fold
Vaginal tissue construct; gene interleukin 36 alpha
  IL36A Expr Fold Change: 3.409 fold
Vaginal tissue construct; gene interleukin 36 receptor antagonist
  IL36RN Expr Fold Change: 2.751 fold
Vaginal tissue construct; gene kallikrein related peptidase 6
  KLK6 Fold Change: 2.769 fold
Vaginal tissue construct; gene kallikrein related peptidase 8
  KLK8 Fold Change: 1.831 fold
Vaginal tissue construct; gene kallikrein related peptidase 10
  KLK10 Fold Change: 2.043 fold
Vaginal tissue construct; gene kallikrein related peptidase 12
  KLK12 Fold Change: 4.018 fold
Vaginal tissue construct; gene kallikrein related peptidase 13
  KLK13 Fold Change: 4.626 fold
Vaginal tissue construct; gene keratin 1
  KRT1 Fold Change: 1.949 fold
Vaginal tissue construct; gene keratin 2
  KRT2 Fold Change: 1.214 fold
Vaginal tissue construct; gene keratin 20
  KRT20 Fold Change: −3.702 fold
Vaginal tissue construct; gene keratin 23
  KRT23 Fold Change: 1.891 fold
Vaginal tissue construct; gene keratin 24
  KRT24 Fold Change: 1.673 fold
Vaginal tissue construct; gene keratinocyte differentiation associated protein
  KRTDAP Fold Change: 13.936 fold
Vaginal tissue construct; gene late cornified envelope 1A
  LCE1A Fold Change: 1.307 fold
Vaginal tissue construct; gene late cornified envelope 1C
  LCE1C Fold Change: 1.262 fold
Vaginal tissue construct; gene late cornified envelope 1F
  LCE1F Fold Change: 1.317 fold
Vaginal tissue construct; gene late cornified envelope 2A
  LCE2A Fold Change: 2.026 fold
Vaginal tissue construct; gene late cornified envelope 2B
  LCE2B Fold Change: 1.89 fold
Vaginal tissue construct; gene late cornified envelope 2D
  LCE2C/LCE2D Fold Change: 1.903 fold
Vaginal tissue construct; gene late cornified envelope 5A
  LCE5A Fold Change: 1.454 fold
Vaginal tissue construct; gene lipase family member M
  LIPM Fold Change: 3.572 fold
Vaginal tissue construct; gene lipase family member N
  LIPN Fold Change: 4.57 fold
Vaginal tissue construct; gene lipin 1
  LIPN1 Fold Change: 2.831 fold
Vaginal tissue construct; gene loricrin
  LOR Fold Change: 1.207 fold
Vaginal tissue construct; gene major histocompatibility complex, class II, DP alpha 1
  HLA-DPA1 Expr Fold Change: −1.8 fold
Vaginal tissue construct; gene major histocompatibility complex, class II, DR alpha
  HLA-DRA Expr Fold Change: −2.234 fold
Vaginal tissue construct; gene major histocompatibility complex, class II, DR beta 6 (pseudogene)
  HLA-DRB6 Expr Fold Change: −2.5 fold
Vaginal tissue construct; gene mucin like 1
  MUCL1 Fold Change: 2.857 fold
Vaginal tissue construct; gene phospholipase A2 group IIF
  PLA2G2F Fold Change: 1.824 fold
Vaginal tissue construct; gene phospholipase A2 group III
  PLA2G3 Fold Change: 1.64 fold
Vaginal tissue construct; gene phospholipase A2 group IVD
  PLA2G4D Fold Change: 2.046 fold
Vaginal tissue construct; gene phospholipase A2 group IVE
  PLA2G4E Fold Change: 2.442 fold
Vaginal tissue construct; gene phospholipase A2 group X
  PLA2G10 Fold Change: −2.948 fold
Vaginal tissue construct; gene serpin family B member 12
  SERPINB12 Fold Change: 1.3 fold
Vaginal tissue construct; gene small proline rich protein 2G
  SPRR2G Fold Change: 4.664 fold
Vaginal tissue construct; gene small proline rich protein 4
  SPRR4 Fold Change: 2.669 fold
Vaginal tissue construct; gene solute carrier family 44 member 4
  SLC44A4 Fold Change: −1.8 fold
Vaginal tissue construct; gene suprabasin
  SBSN Fold Change: 3.449 fold
Vaginal tissue construct; gene toll like receptor 3
  TLR3 Expr Fold Change: −2.081 fold
Vaginal tissue construct; gene transient receptor potential cation channel subfamily V member 3
  TRPV3 Fold Change: 1.6 fold
Vaginal tissue construct; listed as estradiol
  VEGFA Fold Change: 2.2 fold
Vaginal tissue construct; result in words
  HLA-DMA expression: down-regulate
  HLA-DMB expression: down-regulate
